Converted amounts (≈) assume the structure as drawn.
Key:
Laodelphax striatellus [1] = assay: Insecticidal activity against adult Laodelphax striatella (small brown planthopper) at 0.0005 ug topically applied measured after 3 hr; format: functional
Laodelphax striatellus [2] = assay: Insecticidal activity against larvae of Laodelphax striatella (small brown planthopper) fed with compound solution dipped rice seedling measured after 5 days by test tube method; format: functional; conditions: 120 h
Myzus persicae = assay: Insecticidal activity against larvae of Myzus persicae (green peach aphid) infested eggplant petiole treated with compound solution measured after 5 days; format: functional; conditions: 120 h
[3] = Displacement of [3H]alpha-bungarotoxin from nicotinic acetylcholine receptor in Apis mellifera (honey bee) head membrane
[4] = Acute toxicity in po dosed Mus musculus ICR (mouse) assessed as mortality measured after 14 days; format: organism-based; conditions: in vivo
Laodelphax striatellus [5] = assay: Insecticidal activity against adult Laodelphax striatella (small brown planthopper) at 0.0005 ug topically applied measured after 24 hr; format: functional
Laodelphax striatellus [6] = assay: Insecticidal activity against Laodelphax striatella (small brown planthopper) at 0.0005 ug topically applied measured after 72 hr; format: functional
Laodelphax striatellus [7] = assay: Insecticidal activity against Laodelphax striatella (small brown planthopper) at 12.5 ppm; format: functional
Laodelphax striatellus [8] = assay: Insecticidal activity against Laodelphax striatella (small brown planthopper) at 3.1 ppm in presence of diethyl maleate; format: functional
Laodelphax striatellus [9] = assay: Insecticidal activity against Laodelphax striatella (small brown planthopper) at 12.5 ppm in presence of triphenyl phosphate; format: functional
Laodelphax striatellus [10] = assay: Insecticidal activity against Laodelphax striatella (small brown planthopper) at 12.5 ppm in presence of diethyl maleate; format: functional
Laodelphax striatellus [11] = assay: Insecticidal activity against Laodelphax striatella (small brown planthopper) at 3.1 ppm in presence of piperonyl butoxide; format: functional
Laodelphax striatellus [12] = assay: Insecticidal activity against Laodelphax striatella (small brown planthopper) at 3.1 ppm; format: functional
Laodelphax striatellus [13] = assay: Insecticidal activity against Laodelphax striatella (small brown planthopper) at 3.1 ppm in presence of triphenyl phosphate; format: functional
Laodelphax striatellus [14] = assay: Insecticidal activity against Laodelphax striatella (small brown planthopper) at 12.5 ppm in presence of piperonyl butoxide; format: functional
Laodelphax striatellus [15] = assay: Insecticidal activity against Laodelphax striatella (small brown planthopper) at 0.0005 ug topically applied measured after 48 hr; format: functional

SMILES | LC50 (Laodelphax striatellus [2]) [µg/mL] | LC50 (Myzus persicae) [µg/mL] | further results
O=[N+]([O-])/C=C1\NCCN1Cc1ccc(Cl)nc1 | 0.3 (≈ 1.18 µM) | 0.09 (≈ 0.353 µM) | mortality (Laodelphax striatellus [1]): 70%; IC50 [3]: 0.11 µM; LD50 at 336 h [4]: < 30 mg/kg; mortality (Laodelphax striatellus [5]): 100%
C[Si](C)(CSC/C(=C1/NCCN1Cc1ccc(Cl)nc1)[N+](=O)[O-])c1ccccc1 | 0.1 (≈ 0.223 µM) | 0.25 (≈ 0.557 µM) | 
O=C(SC/C(=C1/NCCN1Cc1ccc(Cl)nc1)[N+](=O)[O-])c1ccccc1 | 6.3 (≈ 15.6 µM) | 1.2 (≈ 2.96 µM) | 
CC(SC/C(=C1/NCCN1Cc1ccc(Cl)nc1)[N+](=O)[O-])c1ccc(Cl)cc1 (stereo not drawn) | 1 (≈ 2.28 µM) | 0.2 (≈ 0.455 µM) | 
O=[N+]([O-])/C(CSCc1ccc(Cl)cc1)=C1\NCCN1Cc1ccc(Cl)nc1 | 0.14 (≈ 0.329 µM) | 0.8 (≈ 1.88 µM) | 
O=[N+]([O-])/C(CSCc1ccccc1)=C1\NCCN1Cc1ccc(Cl)nc1 | 0.36 (≈ 0.921 µM) | 0.11 (≈ 0.281 µM) | 
CCOC(=O)CSC/C(=C1/NCCN1Cc1ccc(Cl)nc1)[N+](=O)[O-] | 0.3 (≈ 0.775 µM) | 0.1 (≈ 0.258 µM) | 
O=[N+]([O-])/C(CSc1ccccc1)=C1\NCCN1Cc1ccc(Cl)nc1 | 0.11 (≈ 0.292 µM) | 0.34 (≈ 0.902 µM) | 
O=[N+]([O-])/C(CSCCCF)=C1\NCCN1Cc1ccc(Cl)nc1 | 0.14 (≈ 0.388 µM) | 0.2 (≈ 0.554 µM) | 
CC#CCSC/C(=C1/NCCN1Cc1ccc(Cl)nc1)[N+](=O)[O-] | 0.3 (≈ 0.85 µM) | 0.25 (≈ 0.709 µM) | 
C=C(C)CSC/C(=C1/NCCN1Cc1ccc(Cl)nc1)[N+](=O)[O-] | < 0.05 | 0.15 (≈ 0.423 µM) | 
C#CCSC/C(=C1/NCCN1Cc1ccc(Cl)nc1)[N+](=O)[O-] | < 0.05 | 0.22 (≈ 0.649 µM) | 
C=CCSC/C(=C1/NCCN1Cc1ccc(Cl)nc1)[N+](=O)[O-] | 0.14 (≈ 0.411 µM) | 0.1 (≈ 0.293 µM) | mortality (Laodelphax striatellus [1]): 0%; mortality (Laodelphax striatellus [6]): 100%; mortality at 12.5 ppm (Laodelphax striatellus [7]): 100%; mortality at 3.1 ppm (Laodelphax striatellus [8]): 30%; mortality at 12.5 ppm (Laodelphax striatellus [9]): 100%; mortality at 12.5 ppm (Laodelphax striatellus [10]): 80%; mortality at 3.1 ppm (Laodelphax striatellus [11]): 100%; mortality at 3.1 ppm (Laodelphax striatellus [12]): 100%; IC50 [3]: 20.4 µM; LD50 at 336 h [4]: > 1000 mg/kg; mortality at 3.1 ppm (Laodelphax striatellus [13]): 100%; mortality at 12.5 ppm (Laodelphax striatellus [14]): 100%; mortality (Laodelphax striatellus [15]): 80%; mortality (Laodelphax striatellus [5]): 30%
CC(C)(C)SC/C(=C1/NCCN1Cc1ccc(Cl)nc1)[N+](=O)[O-] | 0.43 (≈ 1.2 µM) | 0.2 (≈ 0.56 µM) | 
CCSC/C(=C1/NCCN1Cc1ccc(Cl)nc1)[N+](=O)[O-] | 0.41 (≈ 1.25 µM) | 0.18 (≈ 0.547 µM) | 

Source: ChEMBL document CHEMBL3045198, “Insecticidal Activity and Selective Toxicity of Chloronicotinyl Compounds Having Thiomethyl Groups” (J Pestic Sci, 2000)
